Here are results for four compounds from patent publication US20240325458A1, “COMPOSITION FOR PRODUCING BILE ACIDS” (priority 2020, published 2024).

The subject of one assay is prostate cancer cell. The note with it: by reducing E-cadherin expression; reported [63, 64]; cited from earlier work.
Another assay deals with estrogen receptor R (ER) (Homo sapiens, UniProt Q92731). The note with it: reported [63, 64]; cited from earlier work.
For a further assay, the target named is T1, androgen receptor (AR) (Homo sapiens, UniProt P10275).
T1 sequence (P10275 1-920): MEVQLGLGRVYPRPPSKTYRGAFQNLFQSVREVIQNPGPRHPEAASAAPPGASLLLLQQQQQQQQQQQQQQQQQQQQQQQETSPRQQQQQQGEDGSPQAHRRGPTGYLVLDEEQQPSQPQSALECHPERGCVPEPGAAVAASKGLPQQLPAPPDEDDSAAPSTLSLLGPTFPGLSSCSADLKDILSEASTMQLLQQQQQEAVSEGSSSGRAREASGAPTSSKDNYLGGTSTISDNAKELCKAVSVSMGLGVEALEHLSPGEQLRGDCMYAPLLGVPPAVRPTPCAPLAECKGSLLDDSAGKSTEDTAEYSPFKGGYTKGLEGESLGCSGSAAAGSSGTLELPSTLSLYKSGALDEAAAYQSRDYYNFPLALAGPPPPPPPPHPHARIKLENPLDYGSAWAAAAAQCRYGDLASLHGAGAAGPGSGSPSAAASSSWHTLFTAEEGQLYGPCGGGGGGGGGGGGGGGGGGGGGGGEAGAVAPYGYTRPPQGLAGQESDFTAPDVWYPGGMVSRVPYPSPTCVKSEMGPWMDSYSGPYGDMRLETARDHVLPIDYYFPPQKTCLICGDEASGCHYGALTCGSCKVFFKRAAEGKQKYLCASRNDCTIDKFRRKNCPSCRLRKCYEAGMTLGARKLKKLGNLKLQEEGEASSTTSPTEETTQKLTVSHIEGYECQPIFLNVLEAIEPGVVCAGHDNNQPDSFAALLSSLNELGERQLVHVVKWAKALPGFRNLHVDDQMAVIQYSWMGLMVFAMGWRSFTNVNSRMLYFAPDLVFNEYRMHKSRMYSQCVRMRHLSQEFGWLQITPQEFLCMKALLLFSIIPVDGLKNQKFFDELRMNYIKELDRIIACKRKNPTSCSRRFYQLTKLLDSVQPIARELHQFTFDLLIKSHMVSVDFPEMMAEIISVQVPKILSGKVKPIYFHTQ
Particulars: reported [28, 63, 64]; cited from earlier work.

The subject of assay [1] is C. difficile 630. Briefly: Electron microscopy (SEM/TEM) after isoalloLCA treatment. Format: cell-based, Clostridioides difficile. The note with it: 8 μM isoalloLCA, 5 hours, WCA medium. On the procedure:
(§1) FIG. 4C is typical scanning electron microscope images (SEM, left panels) and transmission electron microscope images (TEM, right panels) when C. difficile 630 and VRE were cultured for 5 hours in a WCA medium containing or not containing 8 μM isoalloLCA. The scale bars indicate 1.0 μm (SEM), 200 nm (C. difficile 630 TEM), and 500 nm (VRE TEM). The arrows indicate the shape change after isoalloLCA treatment.
(§2) Bacterial cultures incubated with or without isoalloLCA were collected after 5 hr incubation for electron microscopy samples. For scanning electron microscopy, 10-30 μL of culture was spotted on the Nano percolator membrane (JEOL) and fixed in freshly prepared 2.5% glutaraldehyde solution. After overnight fixation at 4° C., samples were washed in 0.1 M phosphate buffer (pH 7.4, Muto Pure Chemicals), fixed with 1.0% osmium tetroxide (TAAB Laboratories) for 2 hr at 4° C., and treated with a series of increasing concentrations of ethanol. Samples were dried up with critical point dryer (CPD300, Leica Biosystems) and coated with about 2 nm thickness of osmium using a conductive osmium coater (Neoc-ST, Meiwafosis). SEM images were acquired using the SU6600 (Hitachi High Tech) at electron voltage of 5 keV.
(§3) For transmission electron microscopy, microbial pellets were prepared by centrifugation (13,000 rpm, 2 min) from 25 mL bacterial cultures. […]

Assay [2] relates to gram-positive symbiotic bacteria. Description: Growth inhibition of intestinal symbiotic bacteria. Format: cell-based.
The next assay deals with VRE. Briefly: Electron microscopy (SEM/TEM) after isoalloLCA treatment. Format: cell-based, Enterococcus faecium. Particulars: 8 μM isoalloLCA, 5 hours, WCA medium. On the procedure:
as §1, §2, §3

In the next assay the test system is Lactobacillus strain. Description: Growth inhibition of intestinal symbiotic bacteria. In kind it is cell-based.
For assay [3], the system named is C. difficile 630. Description: Bacterial growth inhibition assay (OD 600). In kind it is cell-based, Clostridioides difficile. An excerpt: (§4) Clostridioides difficile strain 630 (ATCC BAA-1382), Clostridioides difficile VPI 10463 (ATCC 43255), vancomycin-resistant Enterococcus faecium (ATCC 700221), Streptococcus dysgalactiae subsp. equisimilis (ATCC 12394), carbapenemase-resistant Klebsiella pneumoniae (ATCC BAA-1705), and Salmonella enterica subsp. enterica (ATCC 14028) were purchased from the American Type Culture Collection (ATCC).
(§5) From fresh colonies grown on BHK blood agar plates (Kyokuto), a primary suspension adjusted to OD 600 of 0.63 was prepared in WCA medium. Subsequently, the secondary suspension was prepared by diluting 100 μL of primary suspension into a total of 2.4 mL of medium. 10 μL of secondary suspension was inoculated to a total of 200 μL of medium containing varying concentrations ([…], 6.25, 12.5, 25, and 50 μM) of bile acids; DCA, LCA, 3-oxoLCA, 3-oxoalloLCA, isoLCA, alloLCA, and isoalloLCA. The growth of bacteria was monitored every 0.5-1 hr by OD 600 measurement using a microplate reader (Sunrise Thermo, Tecan) set at 37° C. with a 60 see shaking before each time point. For determining the minimal inhibitory concentration, 10 μL of secondary suspension was inoculated into a total of 200 μL of medium containing 0.25 to 50 μM of isoalloLCA.
Therefore, next, it was investigated whether 3-oxoLCA and isoalloLCA had the ability to inhibit the growth of C. difficile. […]

The test system of the next assay is gram-negative pathogens. Briefly: Bacterial growth inhibition assay, gram-negative pathogen panel. Particulars: all bacteria in the gram-negative pathogen panel. Format: cell-based.
In the next assay the test system is human fecal microbiota. Briefly: Culturing human feces with bile acids, 16S rRNA gene sequencing. In kind it is cell-based. The note with it: 50 μM, 48 hr. On the procedure:
Human fecal culture was conducted in 96-deep well plates (Treff Lab) using stool samples obtained from young and healthy donors. […] Fecal cultures with a final concentration of 50 μM bile acids (LCA, 3-oxoLCA, and isoalloLCA) were incubated anaerobically for 48 hr at 37° C. DNA was extracted from the fecal sample culture for 16S metagenomic sequencing as described above.
In addition, in order to assess the effects of isoalloLCA on the complex normal intestinal microbiota, human fecal microbiota from young, healthy sample donors were cultured using isoalloLCA, 3-oxoLCA, LCA, or control systems and analyzed for bacterial microbiota changes by 16S rRNA gene sequencing.

The test system of a further assay is C. difficile VPI10463. Description: Bacterial growth inhibition assay (OD 600). In kind it is cell-based, Clostridioides difficile. The note with it: toxin-producing strain.
From the text: as §4, §5

Another assay relates to Treg cells. Particulars: reported [30]; cited from earlier work.
Assay [4] deals with C. sporogenes, C. indolis, and C. HGF2 (innocuum). Description: Scanning electron microscopy of symbiotic bacteria. Format: cell-based. The note with it: 2.5 μM isoalloLCA, 5 hours, WCA medium. How it is done: FIG. 16B is a set of photographs showing typical results obtained by observing C. difficile 630, C. sporogenes, C. indoli, and C. HGF2 (innocuum) with a scanning electron microscope after culturing for 5 hours in a WCA medium containing control or 2.5 μM isoalloLCA. […] Scale bars indicate 5.0 μm and 1.0 μm. The arrowheads indicate a shape change after isoalloLCA treatment.
as §2

Assay [5] deals with gram-negative symbiotic bacteria. Description: Growth inhibition of intestinal symbiotic bacteria. Format: cell-based. Particulars: most gram-negative symbiotic bacteria such as Bacteroides; WCA and BHI media.
The subject of assay [6] is vancomycin-resistant Enterococcus faecium (VRE). Description: Bacterial growth inhibition assay (OD 600). In kind it is cell-based.
From the text: as §4, §5

The subject of another assay is Clostridioides difficile. The note with it: known [36, 40, 41]; cited from earlier work.
The subject of the next assay is T helper 17 (TH17) cells. The note with it: reported [30]; cited from earlier work.
The mark [7] stands for this setting: compared to other bile acid compounds.

SMILES strings stand for the structures.

Sequence of estrogen receptor R (ER) (Q92731 whole entry): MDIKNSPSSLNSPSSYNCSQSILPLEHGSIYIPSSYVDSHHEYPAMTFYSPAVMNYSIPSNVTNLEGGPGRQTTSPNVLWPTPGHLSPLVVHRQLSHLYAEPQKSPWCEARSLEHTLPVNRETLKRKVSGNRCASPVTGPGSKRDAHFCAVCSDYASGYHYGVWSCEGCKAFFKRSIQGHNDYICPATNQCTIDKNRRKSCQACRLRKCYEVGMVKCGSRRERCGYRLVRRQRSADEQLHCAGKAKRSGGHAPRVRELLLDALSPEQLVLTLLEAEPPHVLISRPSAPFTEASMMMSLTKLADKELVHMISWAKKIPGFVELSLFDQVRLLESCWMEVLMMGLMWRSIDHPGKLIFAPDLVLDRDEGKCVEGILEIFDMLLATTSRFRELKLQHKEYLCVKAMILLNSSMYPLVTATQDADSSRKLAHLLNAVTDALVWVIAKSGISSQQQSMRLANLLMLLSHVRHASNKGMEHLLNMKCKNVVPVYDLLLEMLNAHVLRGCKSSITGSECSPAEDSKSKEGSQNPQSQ

As for `C[C@]12CC[C@H](O)C[C@@H]1CC[C@@H]1[C@@H]2CC[C@]2(C)[C@@H](O)CC[C@@H]12` [3β-androstanediol], in the assay with prostate cancer cell, the “prostate cancer cell migration” value is on record as “inhibits prostate cancer cell migration”. Also, the estrogen receptor activation entry at estrogen receptor R (ER) is “activates estrogen receptor R (ER)”. The “binding to AR” value on androgen receptor (AR) is “without binding to AR”.

Turning to `C[C@H](CCC(=O)O)[C@H]1CC[C@H]2[C@@H]3CC[C@H]4C[C@@H](O)CC[C@]4(C)[C@H]3CC[C@]12C` [isoalloLCA, Iso-allo-lithocholic acid], the “bactericidal effect, morphological and hyperfine structure changes” value is “bactericidal and results in morphological changes and hyperfine structure changes” in the assay on C. difficile 630 [1]; “bactericidal and results in morphological changes and hyperfine structure changes” with VRE. In addition, the “MIC90 value of the symbiotic strains relative to pathogens” value in [2] is “generally higher than that of the pathogens”. The “resistance of symbiotic strain in BHI medium compared to WCA medium” value in assay [2] (BHI medium rich in peptone and amino acids) is given as “increased resistance”. Further, the effect on growth result was “reliably inhibited the growth” in [2] (WCA and BHI media); “did not significantly affect the growth” in [5]. The “resistance to the inhibitory effect” value with Lactobacillus strain is reported as “highly resistant”. In addition, in the assay with C. difficile 630 [3] (WCA medium), the “minimum inhibitory concentration (MIC90) required to prevent growth of 90% or more” value amounted to 2.0 µM. Moreover, the growth inhibition result in the assay on C. difficile 630 [3] (in vitro, optical density over time) is recorded as “strongly inhibited the growth”; in the assay with C. difficile VPI10463 it was “Strong growth inhibition”; in [6], “Strong growth inhibition”. In the assay on gram-negative pathogens, the “resistant at the highest concentration tested” value is > 50 µM. In addition, the “change in gram-negative bacteria (Bacteroides, Alistipes)” value with human fecal microbiota (setting [7]) is on record as “corresponding increase”. Further, in the assay on human fecal microbiota (setting [7]), the “change in gram-positive bacteria (Clostridium, Faecalibacterium, Bifidobacterium, Streptococcus)” value is given as “more pronounced decrease”. In addition, the “α-diversity (Shannon index) of fecal culture” value in the assay with human fecal microbiota (feces of young healthy donors) was “not significantly affected”. The bacterial community structure result in the assay with human fecal microbiota (phylum level) was “clear widespread change in the bacterial community structure”. In addition, the Treg cell induction entry with Treg cells is “induces Treg cells”. For the same compound, the “cell wall structure by scanning electron microscopy” value in assay [4] is listed as “cell wall structure of the symbiotic bacteria was maintained”.

For `C[C@H](CCC(=O)O)[C@H]1CC[C@H]2[C@@H]3CC[C@@H]4C[C@@H](O)CC[C@]4(C)[C@H]3CC[C@]12C` [isoLCA, Iso-lithocholic acid], in the assay on Clostridioides difficile, the “inhibition of growth of Clostridioides difficile” value was “inhibiting the growth”. In addition, in the assay with T helper 17 (TH17) cells, the TH17 cell suppression result was “suppress T helper 17 (TH17) cells”.

`C[C@H](CCC(=O)O)[C@H]1CC[C@H]2[C@@H]3CC[C@@H]4CC(=O)CC[C@]4(C)[C@H]3CC[C@]12C` [St 3-oxoLCA, 3-Oxo-lithocholic acid, reference compound]: the TH17 cell suppression result with T helper 17 (TH17) cells is given as “suppress T helper 17 (TH17) cells”.
